US20160201132A1, “GENE EXPRESSION BIOMARKERS OF LAQUINIMOD RESPONSIVENESS” (Teva Pharmaceutical Industries Ltd., priority 2013, published 2016)

Tested on: PBMC of RRMS patients
Test: Gene expression microarray analysis (HG-U133A-2) of PBMC from RRMS patients treated with LAQ, ancillary study to ALLEGRO
Type: in vivo, human
Conditions: for Fold-Change (1.0 vs. 0.0): one month of treatment
From the text: The goal of this ancillary study was to characterize gene expression changes and corresponding biological mechanisms induced in PBMC of RRMS patients by LAQ treatment. According to ALLEGRO clinical trial inclusion criteria, 25 patients were randomly assigned to receive LAQ (n=13, age 38.8±2.3 years, female/male ratio: 8/5) or placebo (n=12, age 37.2±3.4 years, female/male ratio: 8/4).
Peripheral blood samples were obtained from RRMS patients at baseline before start of LAQ treatment or placebo, after 0, 1, 6 and 24 month of treatment (visit 0, 1, 6 and 7 according to ALLEGRO clinical trial protocol correspondently) for gene microarray analysis.
Briefly, 1) Peripheral blood mononuclear cells (PBMC) were obtained from RRMS patients that participated in ALLEGRO and were treated daily with 0.6 mg LAQ or placebo. PBMC were subjected for gene expression analysis (HU-133A-2-Affymatrix arrays) at baseline and at 1 and 6 months of LAQ treatment; 2) Data was analyzed by Partek Genomics Solution software. Most informative genes (MIGs) were defined as those that differentiated between groups with p<0.01. Gene functional annotation, enrichment and pathway analysis were performed by Ingenuity software. For each time point, genes that changed in placebo group were excluded from further analysis; and 3) Verification of LAQ related mechanism was performed by Western blot.
PBMC were extracted from 15 ml peripheral blood, separated by Ficoll-Hypaque gradient. Total RNA was extracted using both Trizol (Invitrogen, USA) and Phase-Lock-Gel columns (Eppendorf, Germany) including a DNase digestion step. RNA integrity was assessed by RNA Experion automated electrophoresis system (Bio-Rad Laboratories, Hercules, Calif.).
Probe synthesis using 3 μg total RNA, hybridization, detection, and scanning was performed according to the standard Affymetrix, Inc. USA protocols; cDNA was synthesized using the Two-Cycle cDNA Synthesis Kit (Affymetrix, Inc., USA), and in-vitro transcription performed with the GeneChip IVT Labeling Kit (Affymetrix, Inc., USA). The biotin-labeled IVT-RNA was hybridized to HG-U133A-2 arrays containing 18,400 gene transcripts, each corresponding to 14,500 well-annotated human genes, washed in a GeneChip Fluidics Station 450 (Hewlett Packard, USA, GeneArray-™ scanner G2500A) and scanned according to the manufacturer's protocol (Affymetrix, Inc., USA).
Data analysis was performed on Partek Genomics Solution software (www.partek.com; Partek Incorporated, St. Louis, Mo.). Expression values were computed from raw CEL files by applying the Robust Multi-Chip Average (RMA) background correction algorithm. RMA correction included: 1) values background correction; 2) quintile normalization; 3) log 2 transformation; and 4) median polish summarization. The ANOVA, Repeated Measures and correlation analysis implicated in Partek software ware applied to evaluate LAQ effects. Most informative genes MIGs were defined as those that differentiated between experimental groups with p<0.01. All p-values were calculated for False Discovery Rate (FDR) multiple test correction at p=0.05.
Additionally, significance of individual genes was tested by parametric T-test and non parametric Mann-Whitney test using Bootstrapping approach based on repeated permutations of the data with 5% FDR for multiple testing.
Gene functional annotation, enrichment, and pathway analyses to identify the leading biological pathways that operated under LAQ treatment were performed by Ingenuity Pathways Analysis software (www.ingenuity.com).
ANOVA analysis was used to compare PBMC gene expression after 1, 6 or 24 month of LAQ treatment with baseline gene expression.
For each time point inventors performed analysis source of variation in dataset. (FIG. 1). Age, gender and batch effects were considered as confounders regarding LAQ or Placebo related changes. For each time point genes associated with Placebo effect were evaluated and excluded from further analysis. […]

For `CCN(C(=O)c1c(O)c2c(Cl)cccc2n(C)c1=O)c1ccccc1` [LAQ, 5-chloro-N-ethyl-4-hydroxy-1-methyl-2-oxo-N-phenyl-1,2-dihydroquinoline-3-carboxamide], the “Fold-Change (1.0 vs. 0.0)” value (LYVE1 220037_s_at) was −1.139, the “Fold-Change (1.0 vs. 0.0)” value (MARCH6 201736_s_at) was −1.139 and the “Fold-Change (1.0 vs. 0.0)” value (MAX 210734_x_at) was −1.284. For the same compound, the “Fold-Change (1.0 vs. 0.0)” value (MFAP3L 205442_at) was −1.854, the “Fold-Change (1.0 vs. 0.0)” value (MFAP3L 210493_s_at) was −1.464 and the “Fold-Change (1.0 vs. 0.0)” value (MYL9 201058_s_at) was −1.74. The “Fold-Change (1.0 vs. 0.0)” value (MYST3 202423_at) was −1.08, the “Fold-Change (1.0 vs. 0.0)” value (NAT8B 206964_at) was −1.746 and the “Fold-Change (1.0 vs. 0.0)” value (NENF 218407_x_at) was −1.141. For the same compound, the “Fold-Change (1.0 vs. 0.0)” value (NRGN 204081_at) was −1.604, the “Fold-Change (1.0 vs. 0.0)” value (PDE5A 206757_at) was −1.213 and the “Fold-Change (1.0 vs. 0.0)” value (PDGFA 205463_s_at) was −1.536. The “Fold-Change (1.0 vs. 0.0)” value (PGRMC1 201120_s_at) was −1.432, the “Fold-Change (1.0 vs. 0.0)” value (PGRMC1 201121_s_at) was −1.443 and the “Fold-Change (1.0 vs. 0.0)” value (POPDC3 219926_at) was −1.1575. For the same compound, the “Fold-Change (1.0 vs. 0.0)” value (POU1F1 207846_at) was −1.091, the “Fold-Change (1.0 vs. 0.0)” value (PPM1A 203966_s_at) was −1.182 and the “Fold-Change (1.0 vs. 0.0)” value (PRKG1 207119_at) was −1.185. For the same compound, the “Fold-Change (1.0 vs. 0.0)” value (PRPF4B 202127_at) was −1.135, the “Fold-Change (1.0 vs. 0.0)” value (PSD3 218613_at) was −1.258 and the “Fold-Change (1.0 vs. 0.0)” value (PTCRA 211837_s_at) was −1.274. The “Fold-Change (1.0 vs. 0.0)” value (PTCRA 215492_x_at) was −1.526, the “Fold-Change (1.0 vs. 0.0)” value (PTGIS 210702_s_at) was −1.095 and the “Fold-Change (1.0 vs. 0.0)” value (RBM25 212031_at) was −1.105. For the same compound, the “Fold-Change (1.0 vs. 0.0)” value (RET 211421_s_at) was −1.221, the “Fold-Change (1.0 vs. 0.0)” value (SDPR 218711_s_at) was −1.662 and the “Fold-Change (1.0 vs. 0.0)” value (SELP 206049_at) was −1.642. For the same compound, the “Fold-Change (1.0 vs. 0.0)” value (SEPT6 214298_x_at) was −1.133, the “Fold-Change (1.0 vs. 0.0)” value (SF3B1 201071_x_at) was −1.0879 and the “Fold-Change (1.0 vs. 0.0)” value (SLC37A1 218928_s_at) was −1.126. The “Fold-Change (1.0 vs. 0.0)” value (SPARC 200665_s_at) was −1.776, the “Fold-Change (1.0 vs. 0.0)” value (SPARC 212667_at) was −1.73 and the “Fold-Change (1.0 vs. 0.0)” value (SRRT 201680_x_at) was −1.118. For the same compound, the “Fold-Change (1.0 vs. 0.0)” value (TAL1 206283_s_at) was −1.752, the “Fold-Change (1.0 vs. 0.0)” value (TAS2R4 221392_at) was −1.203 and the “Fold-Change (1.0 vs. 0.0)” value (TBXA2R 336_at) was −1.433. For the same compound, the “Fold-Change (1.0 vs. 0.0)” value (TGFB1 203085_s_at) was −1.24, the “Fold-Change (1.0 vs. 0.0)” value (TMED10 200929_at) was −1.099 and the “Fold-Change (1.0 vs. 0.0)” value (TNFSF4 207426_s_at) was −1.7061. For the same compound, the “Fold-Change (1.0 vs. 0.0)” value (TPM1 210986_s_at) was −1.555, the “Fold-Change (1.0 vs. 0.0)” value (TPM1 210987_x_at) was −1.447 and the “Fold-Change (1.0 vs. 0.0)” value (TPTE 220205_at) was −1.158. The “Fold-Change (1.0 vs. 0.0)” value (TRIM58 215047_at) was −1.777, the “Fold-Change (1.0 vs. 0.0)” value (TUBB2B 214023_x_at) was −1.159 and the “Fold-Change (1.0 vs. 0.0)” value (VCL 200931_s_at) was −1.406. For the same compound, the “Fold-Change (1.0 vs. 0.0)” value (WASF3 204042_at) was −1.606, the “Fold-Change (1.0 vs. 0.0)” value (WDR48 222157_s_at) was −1.103 and the “Fold-Change (1.0 vs. 0.0)” value (XK 206698_at) was −1.88. For the same compound, the “Fold-Change (1.0 vs. 0.0)” value (XYLT1 213725_x_at) was 1.314, the “Fold-Change (1.0 vs. 0.0)” value (ZNF415 205514_at) was −1.154 and the “p, differential expression of cellular movement and migration” value (after one month of LAQ treatment) was 3.49*10^−4. For the same compound, the “genes (#), Caveolar mediated endocytosis” value (after one month of treatment) was 8, the “genes (#), Cellular movement: Adhesion & migration of phagocytes” value (after one month of treatment) was 9 and the “genes (#), Chemotaxis of neutrophils” value (after one month of treatment) was 4. For the same compound, the “genes (#), Clathrin mediated endocytosis” value (after one month of treatment) was 12, the “genes (#), Hematological system: Activation of blood platelets” value (after one month of treatment) was 13 and the “genes (#), Hematological system: Aggregation of blood cells” value (after one month of treatment) was 19. The “genes (#), Hematological system: Aggregation of blood platelets” value (after one month of treatment) was 18, the “genes (#), Hematological system: Coagulation of blood” value (after one month of treatment) was 14 and the “genes (#), Inflammatory response: Adhesion of phagocytes” value (after one month of treatment) was 9. The “genes (#), Inflammatory response: TGFb signaling” value (after one month of treatment) was 10 and the “genes (#), Transmigration of leukocytes” value (after one month of treatment) was 8.
